Patent US12648997B2, “Treatment of infections” (priority 2018, dated 2026)

Tests used:
[1] = Stability of daptomycin in transient daptomycin-linker hydrogel conjugates versus free daptomycin; format: physicochemical; conditions: pH 7.4, 37° C, at day seven; peak area ratio at 215 nm
Procedure: The relative stability of the covalently bound daptomycin in the transient daptomycin-linker hydrogel conjugates towards hydrolytic and other degradation pathways in comparison to free daptomycin was investigated. For that purpose, free daptomycin, transient daptomycin-linker HA-conjugate 5 and transient daptomycin-linker PEG-conjugate 9b were incubated at pH 7.4 and 37° C. The supernatants of the carrier samples were exchanged five times within a week and the daptomycin purity in these samples was analyzed by UPLC. In parallel, analytical samples of the free daptomycin control solution were also analyzed by UPLC at the same incubation times. The purity of daptomycin in the samples was calculated as the ratio of the peak area of the intact daptomycin peak at 215 nm relative to the area sum of all daptomycin-related peaks identified at 215 nm.

[2] = system: Methicillin-sensitive Staphylococcus aureus (MSSA) MN8 strain biofilms; test: In vitro biofilm eradication study (Calgary Biofilm Device); format: cell-based; conditions: TSB with 12 mg/mL BSA and 50 μg/mL calcium, 37° C, OD600
Procedure: This study was performed to investigate the daptomycin concentration required to fully eradicate biofilms when constantly exposed to daptomycin for one or three days. […] Biofilms were grown in tryptic soy broth (TSB) using a Methicillin-sensitive Staphylococcus aureus (MSSA) MN8 strain. Aliquots of a diluted culture of this bacterial strain in TSB, obtained from an inoculum of the respective strain on trypticase soy agar plates (TSA), were transferred to all but the negative control wells of flat-bottom 96-well microtiter plates. The bacterial biofilms were formed by immersing lids with pegs into the 96-well microtiter plates, followed by incubation for 24, 48 and 72 hours at 37° C. The differently aged biofilms were subsequently transferred into new microtiter plates using TSB media with addition of 12 mg/mL bovine serum albumin (BSA) and 50 μg/mL calcium as CaCl2. Daptomycin was added to the media as required to obtain concentrations of 2-1458 μg/mL. The plates were incubated for one or three days at 37° C. The biofilms were detached from the pegs by centrifugation, generating bacterial suspensions in the wells of the microtiter plates. The optical densities of these suspensions were measured (OD600) to determine the biofilm eradication concentrations. All measurements were performed in triplicates.

CCCCCCCCCC(=O)N[C@@H](Cc1c[nH]c2ccccc12)C(=O)N[C@H](CC(N)=O)C(=O)N[C@@H](CC(=O)O)C(=O)N[C@@H]1C(=O)NCC(=O)N[C@@H](CCCN)C(=O)N[C@@H](CC(=O)O)C(=O)N[C@H](C)C(=O)N[C@@H](CC(=O)O)C(=O)NCC(=O)N[C@H](CO)C(=O)N[C@@H]([C@H](C)CC(=O)O)C(=O)N[C@@H](CC(=O)c2ccccc2N)C(=O)O[C@@H]1C [daptomycin]
purity of the free daptomycin in the solution control sample [1]: 72%
daptomycin concentration needed to fully eradicate biofilms ([2]; 24 hours exposure, biofilms of all ages (24, 48, 72 h)): 486 µg/mL
daptomycin concentration needed to fully eradicate biofilms ([2]; three days exposure): 162 µg/mL
